Assay results: patent US20260258010A1, “THIOPHENE-2-CARBOXYLIC ACID DERIVATIVE, AND PREPARATION METHOD THEREFOR AND MEDICAL USE THEREOF” (CHINA PHARMACEUTICAL UNIVERSITY, priority 2023, published 2026)

What follows are molecules tested against T1, P2Y14 receptor (Homo sapiens, UniProt Q15391) (assay: cAMP inhibition assay in HEK293 cells stably transfected with the P2Y14 receptor (UDPG-stimulated, cAMP Glo)). Conditions: 100 nM compound; HEK293 stably transfected with P2Y14 receptor; 30 μM Forskolin, 1 μM UDPG, 4 h; inhibition rate from cAMP content; read-out: Inhibition @ 100 nM.
T1 construct: expressed in transfected cells; host or cells: HEK293
T1 sequence (Q15391 1-338): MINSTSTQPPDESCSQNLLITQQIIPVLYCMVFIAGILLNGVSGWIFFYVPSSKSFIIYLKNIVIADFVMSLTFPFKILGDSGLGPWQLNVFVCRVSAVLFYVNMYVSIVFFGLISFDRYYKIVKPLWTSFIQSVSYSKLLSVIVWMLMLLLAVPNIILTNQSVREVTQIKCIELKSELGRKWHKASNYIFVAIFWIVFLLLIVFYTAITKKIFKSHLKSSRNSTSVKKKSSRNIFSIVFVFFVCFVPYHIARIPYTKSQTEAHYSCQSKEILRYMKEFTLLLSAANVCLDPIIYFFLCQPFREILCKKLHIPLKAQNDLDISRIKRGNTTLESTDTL
Type: cell-based
Method: An HEK293 cell strain stably transfected with the P2Y14 receptor was cultured in a DMEM culture medium (containing […], 100 U/mL penicillin, and 100 μg/mL streptomycin). Before the experiment, the cells were seeded into a culture plate at a density of 1×10^5 cells/well, and a serum-free culture medium was used instead. The cells were cultured at 37° C. with […] and 5% CO2 humidity. IBMX was added to inhibit the activity of PDEs, thereby ensuring a relatively high level of cAMP. The AC agonist Forskolin (30 μM) was adopted to stimulate the production of cellular cAMP. Test compounds at different concentrations (0.01 nm, 0.1 nm, 1 nm, 10 nm, and 100 nm) were added in advance, and PPTN was used as a positive control. Subsequently, 1 μM P2Y14 receptor agonist UDPG was added, and after 4 h, the content of intracellular cAMP was measured using a cAMP Glo™ Assay kit (PROMEGA Co. Ltd., USA). The inhibition rate was calculated based on the cAMP content.

Compound	inhibition at 0.1 µM [%]
Cc1ccc(C(=O)Nc2cc(C(=O)O)sc2Oc2ccccc2C)cc1 [Compound 3-17]	45.8
Cc1ccc(C(=O)Nc2cc(C(=O)O)sc2Oc2ccc(Cl)cc2)cc1 [Compound 3-4]	30.9
Cc1ccc(Oc2sc(C(=O)O)cc2NC(=O)c2ccc(N(C)C)cc2)cn1 [Compound 18-4]	46.8
Cc1ccc(C(=O)Nc2cc(C(=O)O)sc2Oc2ccsn2)cc1 [Compound 6-7]	60.3
Cc1ccc(Oc2sc(C(=O)O)cc2NC(=O)c2ccc(C#N)cc2)cn1 [Compound 15-8]	76.4
Cc1ccc(Oc2sc(C(=O)O)cc2NC(=O)c2cnc(C)cn2)cn1 [Compound 18-2]	48.2
CCc1ccc(Nc2sc(C(=O)O)cc2NC(=O)c2ccc(C)cc2)cc1 [Compound 9-3]	71.5
Cc1ccc(C(=O)Nc2cc(C(=O)O)sc2Nc2ccc(C(C)C)cc2)cc1 [Compound 9-4]	59.8
Cc1ccc(C(=O)Nc2cc(C(=O)O)sc2Oc2cccc(C)c2)cc1 [Compound 3-16]	55.8
Cc1ccc(Oc2sc(C(=O)O)cc2NC(=O)c2ccc(C(F)(F)F)cc2)cn1 [Compound 15-9]	82.1
Cc1ccc(Oc2sc(C(=O)O)cc2NC(=O)c2cnn(C)c2)cn1 [Compound 18-5]	45.8
Cc1ccc(Oc2sc(C(=O)O)cc2NC(=O)c2ccc(Cl)cc2)cn1 [Compound 15-2]	75.4
Cc1ccc(C(=O)Nc2cc(C(=O)O)sc2Oc2ccccc2C(F)(F)F)cc1 [Compound 3-9]	57.1
CCCc1ccc(Oc2sc(C(=O)O)cc2NC(=O)c2ccc(C)cc2)cc1 [Compound 3-20]	66.3
COc1ccc(C(=O)Nc2cc(C(=O)O)sc2Oc2ccc(C)nc2)cc1 [Compound 15-10]	91.3
Cc1ccc(C(=O)Nc2cc(C(=O)O)sc2Oc2ccc(C(=O)O)cc2)cc1 [Compound 3-12]	44.1
Cc1ccc(C(=O)Nc2cc(C(=O)O)sc2Oc2ccc(C(C)C)cc2)cc1 [Compound 3-21]	54.3
Cc1ccc(C(=O)Nc2cc(C(=O)O)sc2Oc2cccc(Cl)c2)cc1 [Compound 3-5]	36.2
Cc1ccc(Oc2sc(C(=O)O)cc2NC(=O)c2ccc(C)cc2)cc1 [Compound 3-15]	88.4
Cc1ccc(Oc2sc(C(=O)O)cc2NC(=O)c2ccccc2)cn1 [Compound 14, 5-((6-methylpyridin-3-yl)oxy)-4-(benzamido)thiophene-2-carboxylic acid]	86.9
Cc1ccc(C(=O)Nc2cc(C(=O)O)sc2Oc2ccccc2)cc1 [Compound 3-1]	44.1
Cc1ccc(C(=O)Nc2cc(C(=O)O)sc2Oc2ccc(C)nc2)nc1 [Compound 18-1]	45.1
Cc1ccc(C(=O)Nc2cc(C(=O)O)sc2Oc2ccc(C#N)cc2)cc1 [Compound 3-13]	46.2
CC(=O)c1ccc(Oc2sc(C(=O)O)cc2NC(=O)c2ccc(C)cc2)cc1 [Compound 3-11]	34.5
Cc1ccc(C(=O)Nc2cc(C(=O)O)sc2Oc2ccc(C(F)(F)F)cc2)cc1 [Compound 3-7]	62.6
Cc1ccc(C(=O)Nc2cc(C(=O)O)sc2Oc2ccccc2F)cc1 [Compound 3-3]	66
Cc1ccc(C(=O)Nc2cc(C(=O)O)sc2Oc2ccc(F)cc2)cc1 [Compound 2, 5-(4-fluorophenoxy)-4-(4-methylbenzamido)thiophene-2-carboxylic acid]	70.4
CCc1ccc(C(=O)Nc2cc(C(=O)O)sc2Oc2ccc(C)nc2)cc1 [Compound 15-3]	46.4

Compound	inhibition at 0.1 µM [%]
Cc1ccc(C(=O)Nc2cc(C(=O)O)sc2Oc2ccc(C(C)(C)C)cc2)cc1 [Compound 3-22]	34.6
CCCc1ccc(C(=O)Nc2cc(C(=O)O)sc2Oc2ccc(C)nc2)cc1 [Compound 15-4]	85.6
Cc1ccc(C(=O)Nc2cc(C(=O)O)sc2Oc2cccnc2)cc1 [Compound 6-1]	62
CC(=O)Nc1ccc(Oc2sc(C(=O)O)cc2NC(=O)c2ccc(C)cc2)cc1 [Compound 3-23]	81.1
Cc1ccc(C(=O)Nc2cc(C(=O)O)sc2Oc2ccc(S(C)(=O)=O)cc2)cc1 [Compound 3-14]	62.8
Cc1ccc(Oc2sc(C(=O)O)cc2NC(=O)c2ccc(C(C)(C)C)cc2)cn1 [Compound 15-6]	86.1
Cc1ccc(C(=O)Nc2cc(C(=O)O)sc2Oc2cccc(F)c2)cc1 [Compound 3-2]	69.6
Cc1ccc(C(=O)Nc2cc(C(=O)O)sc2Oc2ccc(C(=O)NCC3CS(=O)(=O)C3)cc2)cc1 [Compound 3-24]	75.6
COc1ccc(Oc2sc(C(=O)O)cc2NC(=O)c2ccc(C)cc2)cc1 [Compound 3-18]	69.8
Cc1ccc(Oc2sc(C(=O)O)cc2NC(=O)c2ccc(C)nc2)cn1 [Compound 17, 4-(6-methylnicotinamido)-5-((6-methylpyridin-3-yl)oxy)thiophene-2-carboxylic acid]	65.1
Cc1ccc(C(=O)Nc2cc(C(=O)O)sc2Oc2ccccn2)cc1 [Compound 6-3]	74.9
Cc1ccc(Oc2sc(C(=O)O)cc2NC(=O)c2ccc(C(=O)O)cc2)cn1 [Compound 15-11]	79.3
Cc1ccc(C(=O)Nc2cc(C(=O)O)sc2Oc2ccc(C(=O)NCCC3CCOCC3)cc2)cc1 [Compound 3-25]	49.5
Cc1ccc(Oc2sc(C(=O)O)cc2NC(=O)c2cnc(C)nc2)cn1 [Compound 18-3]	56.2
Cc1ccc(Nc2sc(C(=O)O)cc2NC(=O)c2ccc(C)cc2)cc1 [Compound 8, 4-(4-methylbenzamido)-5-(p-tolylamino)thiophene-2-carboxylic acid]	75.6
Cc1ccc(C(=O)Nc2cc(C(=O)O)sc2Oc2ccc(OC(F)(F)F)cc2)cc1 [Compound 3-10]	32.7
Cc1ccc(C(=O)Nc2cc(C(=O)O)sc2Nc2ccccc2)cc1 [Compound 9-1]	82.3
Cc1ccc(Oc2sc(C(=O)O)cc2NC(=O)c2ccc(F)cc2)cn1 [Compound 15-1]	75.7
Cc1ccc(C(=O)Nc2cc(C(=O)O)sc2Oc2ccc(F)cn2)cc1 [Compound 6-5]	75.5
Cc1ccc(C(=O)Nc2cc(C(=O)O)sc2Sc2ccccc2)cc1 [Compound 12-1]	57.5
Cc1ccc(C(=O)Nc2cc(C(=O)O)sc2Sc2ccc(F)cc2)cc1 [Compound 12-2]	61.4
Cc1ccc(Sc2sc(C(=O)O)cc2NC(=O)c2ccc(C)cc2)cc1 [Compound 11, 4-(4-methylbenzamido)-5-(p-tolylthio)thiophene-2-carboxylic acid]	75.6
CCc1ccc(Sc2sc(C(=O)O)cc2NC(=O)c2ccc(C)cc2)cc1 [Compound 12-3]	67.5
Cc1ccc(C(=O)Nc2cc(C(=O)O)sc2Oc2cccc(C(F)(F)F)c2)cc1 [Compound 3-8]	52.8
CCc1ccc(Oc2sc(C(=O)O)cc2NC(=O)c2ccc(C)cc2)cc1 [Compound 3-19]	67.4
C#Cc1ccc(C(=O)Nc2cc(C(=O)O)sc2Oc2ccc(C)nc2)cc1 [Compound 15-7]	94.6
Cc1ccc(C(=O)Nc2cc(C(=O)O)sc2Oc2ccccc2Cl)cc1 [Compound 3-6]	40.4
